One may read the melting point as the temperature of the solid-liquid transition. Regarding `Cc1nc2scc(-c3ccccc3)n2c(=O)c1CCN1CCC(c2noc3cc(F)ccc23)CC1`, the melting point was in the range of 76 to 91 °C.

In the case of `Cc1cc(SCCc2ccc3sc(-c4ccc(C(F)(F)F)cc4)nc3c2)ccc1CCC(=O)O`, the melting point lay in the range of 108 to 110 °C. `CCCN(C1CCC(c2c[nH]c3ccc(F)cc23)CC1)C1COc2cccc(OC)c2C1` (configuration not stated) came in with a melting point of 148 °C. The same measure for `Cc1c(Sc2ccc(Cl)cc2)nn(-c2ccc(Oc3ccccc3)cc2)c(=O)c1C#N`: 164 °C; for `Cc1coc2ncnc(NCCc3ccc(Cl)cc3)c12`: 140 °C; for `BrC(Br)(Br)c1ccc2cc(I)ccc2n1`: 124 to 126 °C. `CN(CCSc1ccc(NS(C)(=O)=O)cc1)CCc1ccc(NS(C)(=O)=O)cc1` yielded a melting point of 160 to 163 °C. The molecule `O=C(NC1CC1)OC1c2ccccc2C(=O)N1c1ccc2ccc(Cl)nc2n1` (configuration not stated) showed a melting point of 220 °C. Take `Cc1cc(=O)c(Oc2ccc(Cl)cc2)c(-c2ccc(S(N)(=O)=O)cc2)o1`: the melting point was 221 °C. As for `Cc1cccc(-n2c(CF)nc3ccc(N)cc3c2=O)c1C`, the melting point was 189 to 192 °C.

Regarding `COc1ccc2oc(=O)c(S(=O)(=O)Nc3ccc(Br)cc3)cc2c1`, the melting point fell in the range of 166 to 168 °C.

`O=C(O)Cc1ccc(I)c(OCC(F)(F)F)c1` showed a melting point of 153 to 154 °C. On to `N#Cc1ccc2c(c1)Sc1ccc([N+](=O)[O-])cc1C=C2`, for which the melting point was 234 to 236 °C. `COc1ccc(CN2CCc3c(nc4ccc(OC)cc4c3-c3ccc(OC)cc3)C2=O)cc1`: the melting point fell in the range of 132 to 134 °C. As for `CNc1nc2ccn(Cc3ccc(F)cc3)cc-2n1`, the melting point turned out to be 210 °C. With `Cc1c(-c2ccccc2)oc2c(OCC3CO3)cccc2c1=O` (configuration not stated), the melting point lay within 128 to 129 °C. `NCc1cc(Cl)c(NC(=O)CN2CCN(CCCCC(c3ccc(F)cc3)c3ccc(F)cc3)CC2C(N)=O)c(Cl)c1` (configuration not stated) displayed a melting point of 161 °C.

The molecule `N#Cc1cc(C(F)(F)F)[nH]c1-c1ccsc1Br` came in with a melting point of 170 °C.

`CNC(=O)N1CCc2[nH]cnc2C1c1ccccc1` (configuration not stated) registered a melting point of 180 °C. The same measure for `CCCCNC(=O)C1CCCCC1(O)C(=O)c1ccc(OC)cc1` (configuration not stated): 94 to 95 °C; for `Fc1c(F)c(F)c(CSc2nc3cnccc3[nH]2)c(F)c1F`: 156 to 159 °C; for `Cc1cccc(NC(=O)N(C)C)c1`: 124 to 127 °C. For the molecule `Cc1cccc(OCC2=NCCN2C(=O)Nc2ccccc2)c1C`, the melting point was 150 to 152 °C. Molecule `CCCNc1sc(C(N)=O)c2c1-c1c(cnn1C)CC2` showed a melting point of 207 to 208 °C.

With `Nc1ccccc1Oc1ccc2c(c1)OCC(=O)N2`, the melting point fell in the range of 149 to 150 °C. Consider `CC(C)N1Cc2ccc(F)cc2N(CCN2CC=C(c3c[nH]c4cc(F)ccc34)CC2)S1(=O)=O`, for which the melting point fell in the range of 101 to 103 °C. With `O=C(O)COc1cccc2c1CCc1sc(NCCC(c3ccccc3)c3ccccc3)nc1-2`, the melting point lay in the range of 240 to 243 °C. The result for `COc1cccc(-c2nc(C)nn2-c2ccc(S(N)(=O)=O)cc2)c1` reads 211 to 212 °C; that for `O=C(O)COc1ccc2c(c1)OCO2`, 149 to 151 °C. `Nc1ccc(OCCn2ccnc2)cc1` gave a melting point of 91 to 92 °C. The molecule `Cc1ccc(N)c2nccc(Cl)c12` yielded a melting point of 104 to 107 °C. As for `COC1=C(OC)C(=O)C2=C(CC(CCCCCCCC(N)=O)(C(N)=O)C2)C1=O`, the melting point is 140 to 143 °C. The same measure for `O=C(c1c(Cl)cccc1Cl)n1cnc(-c2ccccc2)c1`: 135 to 136 °C; for `COc1ccc(C(=O)Nc2ccc(-c3ccc4c(c3)OCO4)cc2)cc1CCCN(C)C`: 190 to 192 °C.

Regarding `COc1ccc(-c2ccc(C(=O)NO)cc2)cc1OC1CCCC1`, the melting point lay in the range of 181 to 183 °C. The result for `CC(c1cccc(C#N)n1)C(O)(Cn1cncn1)c1ccc(F)cc1F` (configuration not stated) reads 144 to 146 °C; that for `Nc1c(Cl)cc(C(O)CNCCCCCOCCc2ccccn2)cc1Cl` (configuration not stated), 140 to 142 °C. As for `Nc1ccc2c(c1)COc1cc(Nc3ccc(F)cc3F)ccc1C2=O`, the melting point was in the range of 184 to 193 °C. With `CC1C(=O)N(c2ccc(OCc3ccccc3)cc2)C(=S)N1c1ccccc1` (configuration not stated), the melting point stood at 155 °C. As to `C=C1CC2C3CCC4=CC(=O)C=CC4(C)C3=CCC2(C)C1=O` (configuration not stated), the melting point was in the range of 157 to 160 °C. As for `O=C(Nc1cccnc1Cl)c1ccco1`, the melting point was determined as 102 °C.

`CC1(C)CCC(C)(C)c2cc(-c3cc([N+](=O)[O-])ccc3-c3ccccc3)ccc21` registered a melting point of 181 to 183 °C. Consider `CC(C)(C)OC(=O)NCc1cccc(CC(=O)O)c1`, for which the melting point was 95 to 96.5 °C. Molecule `CC(CNc1ccc(Cl)cc1[N+](=O)[O-])SC#N` (configuration not stated) displayed a melting point of 69 to 70 °C.

The molecule `Cn1c(C(F)(F)F)cc(=O)n(-c2cc(Oc3ccccc3O)c(Cl)cc2F)c1=O` yielded a melting point of 55.4 °C.

In turn, `CC(=O)Nc1ccc(C23CC2C(=O)NC3=O)cc1` (configuration not stated) had a melting point above 230 °C.

For `CNC(=O)c1cc(-c2ccc(S(C)=O)cc2)c(-c2ccc(F)cc2)s1` (configuration not stated), the melting point lay in the range of 218 to 220 °C.

As for `COc1ccc2c(c1)C(C)(C)Oc1c-2ccc(O)c1C(C)=O`, the melting point is 103 to 104 °C. `COc1ccc(-c2cccc(-c3nc(=O)c4ccccc4s3)n2)cc1` had a melting point of 200 to 201 °C. For the molecule `CCOC(=O)C=C1CN(C)C(=O)c2ccccc2N1`, the melting point was 154 to 155 °C. With `CS(=O)(=O)c1ccc(-c2cc(C(F)(F)F)nn2C2CCCCC2)cc1F`, the melting point lay in the range of 228 to 229 °C.

Regarding `OCc1cnoc1-c1ccc2c(c1)OCO2`, the melting point lay within 92 to 93 °C. Consider `CCOC(=O)c1c(C(F)(F)F)nc(C(F)F)c(CO)c1CC`, for which the melting point fell in the range of 59.5 to 60.5 °C. Molecule `O=C(O)c1ccc(C(=O)N2CCN(C(=O)N3CCOCC3)CC2)cc1` yielded a melting point of 203 to 205 °C.

As to `CCN(CC)CCNc1ccc(C)c2sc3ccc(O)cc3c(=O)c12`, the melting point was in the range of 254 to 255 °C.

As for `Cc1cccc2c3c(n(Cc4ccc(Cl)cc4)c12)C(CC(=O)O)CCC3` (single isomer, unassigned; (-)), the melting point is 196 to 198 °C. Molecule `Nc1ccccc1NC(=O)c1ccc(CNC(=O)OCc2cccnc2)cc1` returned a melting point of 159 to 160 °C. In turn, `CCC1=C(C#N)C(c2cccc(C#N)c2Cl)c2c[nH]nc2N1` (configuration not stated) showed a melting point above 300 °C. Molecule `NC(=O)c1cn(-c2ccccc2)nc1-c1ccc([N+](=O)[O-])o1` yielded a melting point of 236 to 238 °C. As for `Cn1cnc(=O)[nH]c1=O`, the melting point was 213 to 214 °C. `Cc1cc(N2C(=O)c3ccccc3C2=O)c(C)cc1N=CN(C)C` displayed a melting point of 170 to 173 °C. Regarding `CC(C)(CCn1ccnc1)NCC(O)c1ccc(OCc2ccccc2)c(NC(N)=O)c1` (configuration not stated), the melting point lay within 142 to 143 °C. The result for `Cc1ccc(C2=NNC(=O)C3CC23)cc1` (configuration not stated) reads 162 to 164 °C; that for `COc1ccc(S(N)(=O)=O)cc1C(C)=O`, 203 to 206 °C. For the molecule `CCc1nn(C2CCCC2)c(N)c1C(N)=O`, the melting point was in the range of 167 to 168 °C. The same measure for `CN(C)S(=O)(=O)c1cc(C(=O)O)cc(NCc2ccccc2)c1Oc1ccccc1`: 205 to 206 °C; for `CSc1ncc2cc(Br)c(=O)[nH]c2n1`: 266 to 270 °C. Molecule `O=C(NNc1ccc(Cl)cc1Cl)C(F)(F)F` yielded a melting point of 127 to 128 °C.

The molecule `Cc1oc(-c2ccccc2)nc1CCOc1ccc(C=CC=CC=C2OC(=O)NC2=O)cc1` returned a melting point of 209 to 211 °C. As for `O=S(=O)(c1ccccc1F)N1CCCC1c1ccc(F)cc1` (racemic), the melting point was 91 °C.

`O=C(NC(=O)c1c(F)cccc1F)Nc1cncc(C(F)(F)F)c1` returned a melting point of 233 to 235 °C.

With `O=C(O)C1CC(c2ccccc2)=NN1` (configuration not stated), the melting point is 180 to 182 °C.

On to `Nc1ccccc1C1CCCN(C(=O)C(F)(F)F)C1` (configuration not stated), for which the melting point came to 138 °C. For `CCCc1[nH]cnc1C=O`, the melting point was 120 to 124 °C. Turning to `CC(=Cc1c(Cl)cccc1Cl)[N+](=O)[O-]`, the melting point lay within 49 to 50 °C. Regarding `CC(=O)OC1CSC(Oc2cccc(-c3cncc(F)c3)c2)C(OC(C)=O)C1OC(C)=O` (configuration not stated), the melting point turned out to be 135 °C. `CCOC(=O)NC[C@H]1CN(c2ccc3c(c2)CCCc2cn[nH]c2-3)C(=O)O1` gave a melting point of 122 to 126 °C. The molecule `CSc1ncccc1OCCO` registered a melting point of 80 °C. `COc1ccc(-c2noc3c2CCCC(C(=O)O)C3)cc1` (configuration not stated) showed a melting point of 194 to 196 °C. Turning to `CCCCOc1ccc(S(=O)(=O)C2(C(=O)NO)CCN(CCCC)CC2)cc1`, the melting point was 121 °C. The result for `Cc1oc(C)c(C(=O)O)c1C(=O)O` reads 232 to 235 °C; that for `N#CC(c1ccccc1)(c1ccccc1)[C@H]1CCCN(CCc2ccc3c(c2)CCO3)C1`, 137 to 140 °C; that for `CC(=O)OC1CC2C3CCC4=CC(=O)CCC4(C)C3CCC2(C)C1N(C)C(=O)C(F)(F)F` (configuration not stated), 173 to 174 °C. On to `O=C(N[C@@H](Cc1ccc(C(=O)c2ccccc2)cc1)C(=O)O)OCC1c2ccccc2-c2ccccc21`, for which the melting point lay within 115 to 117 °C.

With `Cc1cc2ccc(Cl)c(Cl)c2[nH]1`, the melting point was 70 to 71 °C. The result for `O=C(O)C1c2cc(Br)ccc2COc2ccccc21` (configuration not stated) reads 187 to 189 °C; that for `O=c1c2c[nH]c3ccncc3c-2nn1-c1ccccc1`, 334 to 337 °C; that for `COc1cc(C(=O)c2ccnc3ccccc23)ccc1O`, 190 to 192 °C. The molecule `CC(=O)C1CCC2C3CCC4CC(O)C(Br)CC4(C)C3CCC12C` (configuration not stated) yielded a melting point of 171 to 175 °C. On to `CC(C)(C)n1c(=O)[nH]c2ccccc2c1=O`, for which the melting point was in the range of 218 to 220 °C.

Molecule `O=C1N=CC(OCc2ccccn2)(C(F)(F)F)c2cc(Cl)ccc2N1` (configuration not stated) returned a melting point of 233 to 235 °C.

For the molecule `Cc1cc(Oc2ccc(NC(=O)N3CCc4ccccc4CC3)cn2)cc(C)c1Cl`, the melting point fell in the range of 208 to 209 °C.

The values above are taken from a melting point compilation (Tetko et al.; mined from patent text by program, amines drawn as free bases though some values may be those of a salt).
